In PubChem BioAssay AID248 (DTP/NCI, 2004):
Inconclusive results and toxic doses are left out. No stated cut-off is given here; in the data, active means T/C of 150% or more; inactive means T/C below 125%.

Test system: L1210 leukemia ip in BDF1 mice, survival T/C
Test: NCI In Vivo Anticancer Drug Screen. Data for tumor model L1210 Leukemia (intraperitoneal) in B6D2F1 (BDF1) mice
Conditions: endpoint: mean survival time, higher = longer survival
In short: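 Tumor was transplanted into mice, which were then dosed with test compound or vehicle alone. Survival was recorded for each group, and the treated figure was expressed relative to the control figure.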

[1] = dose: 5.0 mg/kg/injection, schedule: Q01DX001 (ip), vehicle: saline
[2] = dose: 10.0 mg/kg/injection, schedule: Q01DX001 (ip), vehicle: saline
[3] = dose: 100.0 mg/kg/injection, schedule: Q01DX009 (ip), vehicle: Klucel (hydroxypropylcellulose) (HPC)
[4] = dose: 200.0 mg/kg/injection, schedule: Q01DX009 (ip), vehicle: Klucel (hydroxypropylcellulose) (HPC)
[5] = dose: 100.0 mg/kg/injection, schedule: Q01DX001 (ip), vehicle: saline
[6] = dose: 200.0 mg/kg/injection, schedule: Q01DX001 (ip), vehicle: saline
[7] = dose: 400.0 mg/kg/injection, schedule: Q01DX001 (ip), vehicle: saline

Measured: T/C

CC12CCC(C(C(=O)C3C(=O)C4(C)CCC3C4(C)C)C1=O)C2(C)C (centres undefined)
inactive: dose: 100.0 mg/kg/injection, schedule: Q01DX001 (ip), vehicle: Klucel (hydroxypropylcellulose) (HPC) 102 % of control | dose: 200.0 mg/kg/injection, schedule: Q01DX001 (ip), vehicle: Klucel (hydroxypropylcellulose) (HPC) 103 % of control | dose: 400.0 mg/kg/injection, schedule: Q01DX001 (ip), vehicle: Klucel (hydroxypropylcellulose) (HPC) 113 % of control

CCOP(=O)(OCC)Oc1ccc([N+](=O)[O-])c(CC)c1
inactive: [1] 100 % of control | [2] 100 % of control

O=C1c2c(O)ccc([N+](=O)[O-])c2C(=O)c2c([N+](=O)[O-])ccc(O)c21
inactive: [3] 93 % of control | dose: 100.0 mg/kg/injection, schedule: Q04DX003 (ip), vehicle: Klucel (hydroxypropylcellulose) (HPC) 106 % of control | [4] 105 % of control | dose: 200.0 mg/kg/injection, schedule: Q04DX003 (ip), vehicle: Klucel (hydroxypropylcellulose) (HPC) 95 % of control | dose: 400.0 mg/kg/injection, schedule: Q01DX009 (ip), vehicle: Klucel (hydroxypropylcellulose) (HPC) 103 % of control | dose: 400.0 mg/kg/injection, schedule: Q04DX003 (ip), vehicle: Klucel (hydroxypropylcellulose) (HPC) 95 % of control

Nc1nc2ncnc(N)c2nc1-c1ccc(N(CCO)CCO)cc1
inactive: [5] 104 % of control | [6] 95 % of control | [7] 100 % of control

Cc1[nH]c(=O)[nH]c(=O)c1CCO
inactive: [5] 96 % of control | [6] 102 % of control | [7] 100 % of control

CC(=O)OC1CC2CC1C1C3C=CC(C3)C21 (centres undefined)
inactive: [5] 98 % of control | [6] 95 % of control | [7] 106 % of control

Cc1ccc(OCC(=O)O)c(Cl)c1
inactive: [3] 104 % of control | [4] 94 % of control

CCN(CC)CCCC(C)Nc1cc(C)nc2ccc(N(C)C)cc12 (centres undefined)
inactive: dose: 12.5 mg/kg/injection, schedule: Q01DX009 (ip), vehicle: saline with Tween-80 104 % of control | dose: 25.0 mg/kg/injection, schedule: Q01DX009 (ip), vehicle: saline with Tween-80 111 % of control | dose: 50.0 mg/kg/injection, schedule: Q01DX009 (ip), vehicle: saline with Tween-80 106 % of control

N=C(N)SCc1cccc(Cl)c1
inactive: dose: 25.0 mg/kg/injection, schedule: Q04DX002 (ip), vehicle: saline with Tween-80 100 % of control | dose: 50.0 mg/kg/injection, schedule: Q04DX002 (ip), vehicle: saline with Tween-80 93 % of control | dose: 100.0 mg/kg/injection, schedule: Q04DX002 (ip), vehicle: saline with Tween-80 90 % of control

O=C(Nc1cccc2ccccc12)N1CCCc2ccccc21
inactive: dose: 50.0 mg/kg/injection, schedule: Q01DX001 (ip), vehicle: carboxymethylcellulose (CMC) 88 % of control | dose: 100.0 mg/kg/injection, schedule: Q01DX001 (ip), vehicle: carboxymethylcellulose (CMC) 98 % of control | dose: 200.0 mg/kg/injection, schedule: Q01DX001 (ip), vehicle: carboxymethylcellulose (CMC) 95 % of control | dose: 400.0 mg/kg/injection, schedule: Q01DX001 (ip), vehicle: carboxymethylcellulose (CMC) 90 % of control

CC1CC2(C)C(CC1=O)CC(C)C1C3CCC(O)C3(C)CCC12 (centres undefined)
inactive: dose: 100.0 mg/kg/injection, schedule: Q01DX009 (ip), vehicle: saline with Tween-80 92 % of control | dose: 200.0 mg/kg/injection, schedule: Q01DX009 (ip), vehicle: saline with Tween-80 96 % of control | dose: 400.0 mg/kg/injection, schedule: Q01DX009 (ip), vehicle: saline with Tween-80 94 % of control

N=c1ccn(CC(Cl)COc2ccccc2)cc1 (centres undefined)
inactive: [1] 103 % of control | [2] 105 % of control | dose: 20.0 mg/kg/injection, schedule: Q01DX001 (ip), vehicle: saline 105 % of control | dose: 40.0 mg/kg/injection, schedule: Q01DX001 (ip), vehicle: saline 100 % of control | dose: 80.0 mg/kg/injection, schedule: Q01DX001 (ip), vehicle: saline 105 % of control | [5] 101 % of control

O=C(c1ccccc1)c1ccc2c3c(cccc13)C(=O)c1ccccc1-2
inactive: dose: 100.0 mg/kg/injection, schedule: Q01DX001 (ip), vehicle: saline with Tween-80 92 % of control | dose: 200.0 mg/kg/injection, schedule: Q01DX001 (ip), vehicle: saline with Tween-80 92 % of control | dose: 400.0 mg/kg/injection, schedule: Q01DX001 (ip), vehicle: saline with Tween-80 88 % of control
